Assay results published in the NIST ThermoML archive (doi:10.1016/j.jct.2016.09.007).

Assay: xn = mol fraction of the nth substance listed
Settings: 93.2 kPa, Liquid; for speed of sound: Frequency=3 MHz, Sing-around technique in a fixed-path interferometer; for mass density: Vibrating tube method

CCCC(=O)[O-].CCCC[NH3+] [n-butylammonium butanoate] + CCCO
Settings	mass density, 293.15 K [kg/m3]	mass density, 298.15 K [kg/m3]	mass density, 303.15 K [kg/m3]	mass density, 308.15 K [kg/m3]	mass density, 313.15 K [kg/m3]	speed of sound, 293.15 K [m/s]	speed of sound, 298.15 K [m/s]	speed of sound, 303.15 K [m/s]	speed of sound, 308.15 K [m/s]	speed of sound, 313.15 K [m/s]
x1 = 0.0507	820.248	816.288	812.295	808.263	804.187	1245.5	1228.1	1210.8	1193.6	1176.7
x1 = 0.1012	834.054	830.162	826.227	822.265	818.288	1264	1246.6	1229.4	1212.2	1195.2
x1 = 0.1518	845.668	841.844	837.991	834.106	830.181	1280	1262.6	1245.3	1228.2	1211.2
x1 = 0.202	855.786	852.003	848.218	844.396	840.532	1294.2	1276.9	1259.7	1242.6	1225.6
x1 = 0.2517	864.424	860.713	856.978	853.215	849.411	1306.7	1289.3	1272.1	1255	1238.2
x1 = 0.3003	871.964	868.301	864.616	860.902	857.161	1317.9	1300.6	1283.4	1266.4	1249.5
x1 = 0.3334	876.626	872.985	869.329	865.652	861.938	1325	1307.7	1290.6	1273.6	1256.7
x1 = 0.401	885.2	881.621	878.022	874.402	870.759	1338.2	1321	1303.9	1286.9	1270.2
x1 = 0.4478	890.446	886.895	883.335	879.756	876.162	1346.9	1329.7	1312.6	1295.7	1279
x1 = 0.5001	895.864	892.351	888.828	885.287	881.725	1355.5	1338.3	1321.2	1304.4	1287.8
x1 = 0.5465	900.176	896.692	893.2	889.694	886.168	1362.8	1345.6	1328.5	1311.7	1295.1
x1 = 0.5992	904.688	901.241	897.78	894.304	890.806	1370.7	1353.4	1336.4	1319.6	1303
x1 = 0.6495	908.619	905.208	901.781	898.337	894.874	1377.9	1360.5	1343.5	1326.6	1310.1
x1 = 0.6928	911.76	908.377	904.977	901.561	898.121	1384	1366.5	1349.4	1332.5	1316
x1 = 0.7484	915.581	912.23	908.868	905.487	902.083	1392	1374.2	1356.9	1340	1323.4
x1 = 0.7906	918.267	914.932	911.595	908.238	904.859	1398.1	1380.1	1362.6	1345.6	1328.9
x1 = 0.8695	922.883	919.552	916.236	912.916	909.578	1409.8	1391.2	1373.3	1355.9	1339
x1 = 0.9443	926.755	923.441	920.127	916.826	913.524	1420	1400.6	1382	1364.2	1347
x1 = 1	928.794	925.509	922.217	918.88	915.567	1431.5	1410.3	1390.4	1371.5	1353.6
